Results from patent US7888285B2, “2,4,6-phenyl substituted cyclic ketoenols” (Bayer CropScience AG, priority 2003, dated 2011).

How the values were obtained:
Assay type in all cases: in vivo
Abultilon [1] = assay: Post-emergence test; settings: greenhouse, 250 g a.i./ha, scored after three weeks
Protocol: (§1) To prepare a suitable active compound preparation, 1 part by weight of active compound is mixed with the stated amount of solvent, the stated amount of emulsifier is added, and the concentrate is diluted with water to the desired concentration.
(§2) Test plants with a height of 5-15 cm are sprayed with the active compound preparation in such a way that the amounts of active compound desired in each case are applied per unit area. The concentration of the spray mixture is chosen in such a way that the amounts of active compound desired in each case are applied in 1 000 1 of water/ha.
(§3) After three weeks, the degree of damage of the plants is scored in % damage in comparison with the development of the untreated control.
(§4) The figures denote: • 0% =no effect (like untreated control) • 100% =total destruction

Alopecurus [2] = assay: Post-emergence test; settings: greenhouse, 250 g a.i./ha, scored after three weeks
Protocol: as §1, §2, §3, §4

Avena fatua [3] = assay: Post-emergence test; settings: greenhouse, 250 g a.i./ha, scored after three weeks
Protocol: as §1, §2, §3, §4

Echinochloa [4] = assay: Post-emergence test; settings: greenhouse, 250 g a.i./ha, scored after three weeks
Protocol: as §1, §2, §3, §4

Setaria [5] = assay: Post-emergence test; settings: greenhouse, 250 g a.i./ha, scored after three weeks
Protocol: as §1, §2, §3, §4

Sinapis [6] = assay: Post-emergence test; settings: greenhouse, 250 g a.i./ha, scored after three weeks
Protocol: as §1, §2, §3, §4

sugar beet [7] = assay: Post-emergence test; settings: greenhouse, 250 g a.i./ha, scored after three weeks
Protocol: as §1, §2, §3, §4

Abultilon [8] = assay: Pre-emergence test; settings: greenhouse, 250 g a.i./ha, scored after three weeks
Protocol: (§5) [table] To prepare a suitable active compound preparation, 1 part by weight of active compound is mixed with the stated amount of solvent, the stated amount of emulsifier is added, and the concentrate is diluted with water to the desired concentration. Seeds of the test plant are sown in normal soil. After approximately 24 hours, the soil is sprayed with the active compound preparation in such a way that the amounts of active compound desired in each case are applied per unit area. The concentration of the spray mixture is chosen in such a way that the amounts of active compound desired in each case are applied in 1 000 1 of water/ha. After three weeks, the degree of damage of the plants is scored in % damage in comparison with the development of the untreated control.

Alopecurus [9] = assay: Pre-emergence test; settings: greenhouse, scored after three weeks
Protocol: as §5

Avena fatua [10] = assay: Pre-emergence test; settings: greenhouse, 250 g a.i./ha, scored after three weeks
Protocol: as §5

Echinochloa [11] = assay: Pre-emergence test; settings: greenhouse, 250 g a.i./ha, scored after three weeks
Protocol: as §5

Setaria [12] = assay: Pre-emergence test; settings: greenhouse, scored after three weeks
Protocol: as §5

Sinapis [13] = assay: Pre-emergence test; settings: greenhouse, 250 g a.i./ha, scored after three weeks
Protocol: as §5

Meloidogyne incognita = assay: Meloidogyne test; settings: 20 ppm, with reference to gall formation
Protocol: (§6) To prepare a suitable active compound preparation, 1 part by weight of active compound is mixed with the stated amounts of solvent and emulsifier and the concentrate is diluted with water to the desired concentration.
Containers are filled with sand, active compound solution, Meloidogyne incognita egg/larval suspension and lettuce seeds. The lettuce seeds germinate and the plantlets develop. The galls develop on the roots.
After the desired time, the nematicidal efficacy is determined I n % with reference to gall formation. 100% means that no galls were found; 0% means that the number of galls on the treated plants corresponds to that of the untreated control.

[14] = system: green peach aphid (Myzus persicae); assay: Myzus test; settings: 1000 ppm
Protocol: To prepare a suitable active compound preparation, 1 part by weight of active compound is mixed with the stated amounts of solvent and emulsifier and the concentrate is diluted with emulsifier-containing water to the desired concentration.
Cabbage leaves (Brassica oleracea), which are severely infested with the green peach aphid (Myzus persicae) are treated by immersing them into the active compound preparation of the desired concentration.
After the desired time, the destruction rate is determined in %. 100% means that all of the aphids have been destroyed; 0% means that none of the aphids have been destroyed.

[15] = system: larvae of the mustard beetle (Phaedon cochleariae); assay: Phaedon larvae test; settings: 1000 ppm
Protocol: [table] To produce a suitable preparation of active compound, 1 part by weight of active compound is mixed with the stated amounts of solvent and emulsifier, and the concentrate is diluted with emulsifier-containing water to the desired concentration. Cabbage leaves (Brassica oleracea) are treated by being dipped into the preparation of active compound of the desired concentration and are infested with the larvae of the mustard beetle (Phaedon cochleariae) while the leaves are still moist.

[16] = system: greenhouse red spider mite (Tetranychus urticae); assay: Tetranychus test (OP-resistant/immersion treatment)
Protocol: (§7) To produce a suitable preparation of active compound, 1 part by weight of active compound is mixed with the stated amounts of solvent and emulsifier, and the concentrate is diluted with emulsifier-containing water to the desired concentration.
Bean plants (Phaseolus vulgaris) which are severely infested with all stages of the greenhouse red spider mite (Tetranychus urticae) are dipped into a preparation of the active compound of the desired concentration.
After the desired time, the activity in % is determined. 100% means that all the spider mites have been killed; 0% means that none of the spider mites have been killed.

Cassia = assay: Pre-emergence test; settings: greenhouse, 125 g a.i./ha, scored after three weeks
Protocol: as §5

Lolium = assay: Pre-emergence test; settings: greenhouse, 125 g a.i./ha, scored after three weeks
Protocol: as §5

Matricaria = assay: Pre-emergence test; settings: greenhouse, 125 g a.i./ha, scored after three weeks
Protocol: as §5

Viola = assay: Pre-emergence test; settings: greenhouse, 125 g a.i./ha, scored after three weeks
Protocol: as §5

sugar beet [17] = assay: Pre-emergence test; settings: greenhouse, scored after three weeks
Protocol: as §5

[18] = system: black bean aphids (Aphis fabae); assay: Aphis test, contact action; settings: 1000 ppm
Protocol: as §6
Shoots of young field bean plants (Vicia faba) which are severely infested with black bean aphids (Aphis fabae) are treated by being dipped into the active compound preparation of the desired concentration.
After the desired period of time, the destruction is determined in %. 100% means that all of the aphids have been destroyed; 0% means that no aphids have been destroyed.

[19] = system: green rice leafhopper (Nephotettix cincticeps); assay: Nephotettix test; settings: 1000 ppm
Protocol: To produce a suitable preparation of active compound, 1 part
by weight of active compound is mixed with the stated amounts of solvent and emulsifier, and the concentrate is diluted with emulsifier-containing water to the desired concentration.
Rice seedlings (Oryza sativa) are treated by being dipped into the preparation of active compound of the desired concentration and are infested with the green rice leafhopper (Nephotettix cincticeps) while the leaves are still moist.
After the desired time, the destruction in % is determined. 100% means that all the leafhoppers have been killed; 0% means that none of the leafhoppers have been killed.

[20] = system: caterpillars of the diamond-back moth (Plutella xylostella); assay: Plutella test; settings: 1000 ppm
Protocol: as §7
Cabbage leaves (Brassica oleracea) are treated by being dipped into the preparation of active compound of the desired concentration and are infested with caterpillars of the diamond-back moth (Plutella xylostella) while the leaves are still moist.
(§8) After the desired time, the destruction in % is determined. 100% means that all the caterpillars have been killed; 0% means that none of the caterpillars have been killed.

[21] = system: caterpillars of the armyworm (Spodoptera frugiperd); assay: Spodoptera frugiperda test; settings: 1000 ppm
Protocol: as §7
Cabbage leaves (Brassica oleracea) are treated by being dipped into the preparation of active compound of the desired concentration and are infested with caterpillars of the armyworm (Spodoptera frugiperd) while the leaves are still moist.
as §8

Amaranthus = assay: Post-emergence test; settings: greenhouse, 250 g a.i./ha, scored after three weeks
Protocol: as §1, §2, §3, §4

SMILES	degree of damage, Alopecurus (Alopecurus [2]) [%]	degree of damage, Avena fatua (Avena fatua [3]) [%]	degree of damage, Setaria (Setaria [5]) [%]	degree of damage, sugar beet (sugar beet [7]) [%]	degree of damage, Alopecurus (Alopecurus [9]; 250 g a.i./ha) [%]	degree of damage, Avena fatua (Avena fatua [10]) [%]	degree of damage, Setaria (Setaria [12]; 250 g a.i./ha) [%]	Destruction in % after 6 d [14] [%]	Destruction in % after 7 d [15] [%]	Destruction in % after 6 d [19] [%]	Destruction in % after 7 d [20] [%]	Destruction in % after 7 d ([16]; 1000 ppm) [%]	further results
CCc1cc(Cl)cc(OC)c1C1=C(O)C2(CCC(OC)CC2)NC1=O (single isomer, unassigned) [Example I-1-a-3]	100	100	100	0	80	100	100	90	80	–	–	–	degree of damage, Abultilon (Abultilon [1]): 70%; degree of damage, Echinochloa (Echinochloa [4]): 100%; degree of damage, Sinapis (Sinapis [6]): 80%; degree of damage, Abultilon (Abultilon [8]): 80%; degree of damage, Echinochloa (Echinochloa [11]): 100%; degree of damage, Sinapis (Sinapis [13]): 80%; Destruction in % after 14 d (Meloidogyne incognita): 98%; Destruction in % after 7 d ([16]; 100 ppm): 80%
COc1cc(Cl)cc(C)c1C1=C(O)C2(CCC(C)CC2)NC1=O (stereo not drawn) [Example I-1-a-1]	100	100	100	0	–	–	–	95	100	100	100	100	degree of damage, Alopecurus (Alopecurus [9]; 125 g a.i./ha): 100%; degree of damage, Cassia (Cassia): 100%; degree of damage, Lolium (Lolium): 100%; degree of damage, Matricaria (Matricaria): 90%; degree of damage, Setaria (Setaria [12]; 125 g a.i./ha): 100%; degree of damage, Viola (Viola): 90%; degree of damage, sugar beet (sugar beet [17]; 125 g a.i./ha): 0%; Destruction in % after 6 d [18]: 100%; Destruction in % after 7 d [21]: 100%
COc1cc(Cl)cc(C)c1C1=C(O)C2(CCOCC2)NC1=O [Example I-1-a-2]	–	100	100	0	100	80	80	100	100	100	100	95	degree of damage, Amaranthus (Amaranthus): 90%; degree of damage, sugar beet (sugar beet [17]; 250 g a.i./ha): 0%
